Data: ChEMBL document CHEMBL1201862, “PubChem BioAssay data set” (2004)
Where “and” joins values, the source holds several entries; their conditions need not be identical. Equal values may be shown once.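 How tested: cells in 96-well plates exposed to compound for 48 hours at five concentrations. The concentration for 50% growth inhibition is given as GI50.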 Calls of active or inactive are those of the source. Cut-off read from the data, not from the text of the source: active = GI50 up to about 1.1 µM and inactive = higher.

Columns and labels:
Assay in all cases: growth of human tumour cells (NCI), 48 h
786-0 = tested on: 786-0
A498 = tested on: A498
A549 = tested on: A549
ACHN = tested on: ACHN
CCRF-CEM = tested on: CCRF-CEM
COLO 205 = tested on: COLO 205
DLD-1 = tested on: DLD-1
DMS-114 = tested on: DMS-114
EKVX = tested on: EKVX
HCC 2998 = tested on: HCC 2998
HCT-116 = tested on: HCT-116
HCT-15 = tested on: HCT-15
HL-60 = tested on: HL-60
HOP-18 = tested on: HOP-18
HOP-62 = tested on: HOP-62
HT-29 = tested on: HT-29
IGROV-1 = tested on: IGROV-1
K562 = tested on: K562
KM-20L2 = tested on: KM-20L2
KM12 = tested on: KM12
LOX IMVI = tested on: LOX IMVI
LXFL 529 = tested on: LXFL 529
M14 = tested on: M14
M19-MEL = tested on: M19-MEL
MOLT-4 = tested on: MOLT-4
Malme-3M = tested on: Malme-3M
NCI-H226 = tested on: NCI-H226
NCI-H23 = tested on: NCI-H23
NCI-H460 = tested on: NCI-H460
NCI-H522 = tested on: NCI-H522
OVCAR-3 = tested on: OVCAR-3
OVCAR-4 = tested on: OVCAR-4
OVCAR-5 = tested on: OVCAR-5
OVCAR-8 = tested on: OVCAR-8
RPMI-8226 = tested on: RPMI-8226
RXF 393 = tested on: RXF 393
SF-268 = tested on: SF-268
SF-295 = tested on: SF-295
SF-539 = tested on: SF-539
SK-MEL-28 = tested on: SK-MEL-28
SK-MEL-2 = tested on: SK-MEL-2
SK-MEL-5 = tested on: SK-MEL-5
SK-OV-3 = tested on: SK-OV-3
SN12C = tested on: SN12C
SNB-19 = tested on: SNB-19
SNB-75 = tested on: SNB-75
SNB-78 = tested on: SNB-78
SW-620 = tested on: SW-620
TK-10 = tested on: TK-10
U-251 = tested on: U-251
UACC-257 = tested on: UACC-257
UACC-62 = tested on: UACC-62
UO-31 = tested on: UO-31
XF498 = tested on: XF498
CAKI-1 = tested on: CAKI-1
DMS-273 = tested on: DMS-273
RXF 631 = tested on: RXF 631
SR = tested on: SR
DU-145 = tested on: DU-145
Hs-578T = tested on: Hs-578T
MCF7 = tested on: MCF7
MDA-MB-231 = tested on: MDA-MB-231
MDA-N = tested on: MDA-N
NCI/ADR-RES = tested on: NCI/ADR-RES
PC-3 = tested on: PC-3
T47D = tested on: T47D

## COc1cc(O)c2c(c1O)C(=O)c1cc(C)ncc1C2=O
786-0
  GI50: 23 µM (inactive)
A498
  GI50: > 50 µM (inactive)
A549
  GI50: 17 µM (inactive)
ACHN
  GI50: 24.3 µM (inactive)
CCRF-CEM
  GI50: 19.2 µM (inactive)
COLO 205
  GI50: 20.3 µM (inactive)
DLD-1
  GI50: 16 µM (inactive)
DMS-114
  GI50: 18.9 µM (inactive)
EKVX
  GI50: 40.5 µM (inactive)
HCC 2998
  GI50: 22.5 µM (inactive)
HCT-116
  GI50: 16.5 µM (inactive)
HCT-15
  GI50: 16.6 µM
HL-60
  GI50: 17.7 µM (inactive)
HOP-18
  GI50: > 50 µM (inactive)
HOP-62
  GI50: 28.8 µM (inactive)
HT-29
  GI50: 15.3 µM (inactive)
IGROV-1
  GI50: 23.1 µM (inactive)
K562
  GI50: 20 µM (inactive)
KM-20L2
  GI50: 17.2 µM (inactive)
KM12
  GI50: 17.9 µM (inactive)
LOX IMVI
  GI50: 13.9 µM (inactive)
LXFL 529
  GI50: 18.6 µM (inactive)
M14
  GI50: 24.8 µM (inactive)
M19-MEL
  GI50: 7.91 µM (inactive)
MOLT-4
  GI50: 30.8 µM (inactive)
Malme-3M
  GI50: 9.71 µM (inactive)
NCI-H226
  GI50: 45 µM (inactive)
NCI-H23
  GI50: 12.4 µM (inactive)
NCI-H460
  GI50: 13.8 µM (inactive)
NCI-H522
  GI50: 27 µM (inactive)
OVCAR-3
  GI50: 16.7 µM (inactive)
OVCAR-4
  GI50: 35.4 µM (inactive)
OVCAR-5
  GI50: 44.9 µM (inactive)
OVCAR-8
  GI50: 21.8 µM (inactive)
RPMI-8226
  GI50: 22.9 µM (inactive)
RXF 393
  GI50: 18.5 µM (inactive)
SF-268
  GI50: 19.8 µM (inactive)
SF-295
  GI50: 19 µM (inactive)
SF-539
  GI50: 17.4 µM (inactive)
SK-MEL-28
  GI50: 26.5 µM (inactive)
SK-MEL-2
  GI50: 22.3 µM (inactive)
SK-MEL-5
  GI50: 11.6 µM (inactive)
SK-OV-3
  GI50: 9.89 µM (inactive)
SN12C
  GI50: 17.9 µM (inactive)
SNB-19
  GI50: 21.6 µM (inactive)
SNB-75
  GI50: 20.3 µM (inactive)
SNB-78
  GI50: 37.8 µM (inactive)
SW-620
  GI50: 20.2 µM (inactive)
TK-10
  GI50: > 50 µM (inactive)
U-251
  GI50: 12.9 µM (inactive)
UACC-257
  GI50: 15 µM (inactive)
UACC-62
  GI50: 17.3 µM (inactive)
UO-31
  GI50: 14.3 µM (inactive)
XF498
  GI50: 20.6 µM (inactive)

## C/C=C/C=C/C=C/C=C/C(=O)O
786-0
  GI50: > 100 µM (inactive)
A498
  GI50: > 100 µM (inactive)
A549
  GI50: > 100 µM (inactive)
ACHN
  GI50: > 100 µM (inactive)
CAKI-1
  GI50: > 100 µM (inactive)
CCRF-CEM
  GI50: > 100 µM (inactive)
COLO 205
  GI50: > 100 µM (inactive)
DLD-1
  GI50: > 100 µM (inactive)
DMS-114
  GI50: > 100 µM (inactive)
DMS-273
  GI50: > 100 µM (inactive)
EKVX
  GI50: > 100 µM (inactive)
HCC 2998
  GI50: > 100 µM (inactive)
HCT-116
  GI50: > 100 µM (inactive)
HCT-15
  GI50: > 100 µM
HL-60
  GI50: > 100 µM (inactive)
HOP-18
  GI50: > 100 µM (inactive)
HOP-62
  GI50: > 100 µM (inactive)
HT-29
  GI50: > 100 µM (inactive)
IGROV-1
  GI50: > 100 µM (inactive)
K562
  GI50: > 100 µM (inactive)
KM-20L2
  GI50: > 100 µM (inactive)
KM12
  GI50: > 100 µM (inactive)
LOX IMVI
  GI50: > 100 µM (inactive)
LXFL 529
  GI50: > 100 µM (inactive)
M14
  GI50: > 100 µM (inactive)
MOLT-4
  GI50: > 100 µM (inactive)
Malme-3M
  GI50: > 100 µM (inactive)
NCI-H226
  GI50: > 100 µM (inactive)
NCI-H23
  GI50: > 100 µM (inactive)
NCI-H460
  GI50: > 100 µM (inactive)
NCI-H522
  GI50: > 100 µM (inactive)
OVCAR-3
  GI50: > 100 µM (inactive)
OVCAR-4
  GI50: > 100 µM (inactive)
OVCAR-5
  GI50: > 100 µM (inactive)
OVCAR-8
  GI50: > 100 µM (inactive)
RPMI-8226
  GI50: > 100 µM (inactive)
RXF 393
  GI50: > 100 µM (inactive)
RXF 631
  GI50: > 100 µM (inactive)
SF-268
  GI50: > 100 µM (inactive)
SF-295
  GI50: > 100 µM (inactive)
SF-539
  GI50: > 100 µM (inactive)
SK-MEL-28
  GI50: > 100 µM (inactive)
SK-MEL-2
  GI50: > 100 µM (inactive)
SK-MEL-5
  GI50: > 100 µM (inactive)
SK-OV-3
  GI50: > 100 µM (inactive)
SN12C
  GI50: > 100 µM (inactive)
SNB-19
  GI50: > 100 µM (inactive)
SNB-75
  GI50: > 100 µM (inactive)
SNB-78
  GI50: > 100 µM (inactive)
SR
  GI50: > 100 µM (inactive)
SW-620
  GI50: > 100 µM (inactive)
U-251
  GI50: > 100 µM (inactive)
UACC-257
  GI50: > 100 µM (inactive)
UACC-62
  GI50: > 100 µM (inactive)
UO-31
  GI50: > 100 µM (inactive)

## CC1(C)CC[C@H](C2=CC(=O)c3c(O)ccc(O)c3C2=O)O1
DMS-114
  GI50: 359 nM (active) and 200 nM (active)
DU-145
  GI50: 2.4 µM (inactive) and 2.09 µM (inactive)
HOP-62
  GI50: 4.61 µM (inactive) and 2.72 µM (inactive)
Hs-578T
  GI50: 2.64 µM (inactive) and 2.74 µM (inactive)
MCF7
  GI50: 173 nM (active) and 216 nM (active)
MDA-MB-231
  GI50: 2.44 µM (inactive) and 1.48 µM (inactive)
MDA-N
  GI50: 577 nM (active) and 904 nM (active)
NCI/ADR-RES
  GI50: 2.79 µM (inactive)
PC-3
  GI50: 2.86 µM (inactive) and 1.71 µM (inactive)
RXF 631
  GI50: 1.15 µM (inactive)
SK-OV-3
  GI50: 8.05 µM (inactive) and 4.24 µM (inactive)
T47D
  GI50: 460 nM (active) and 470 nM (active)
